Source: patent US20220175811A1, “STABLE FORMULATIONS OF CYCLIC DINUCLEOTIDE STING AGONIST COMPOUNDS AND METHODS OF USE THEREOF” (Merck Sharp & Dohme Corp., priority 2019, published 2022)

Assay: Forced stress screen (AIBN, peroxide, 0.1N NaOH)
Format: physicochemical
Procedure: 0.05 mg/mL stock solutions of Compound A were prepared by adding […] of Compound A to a 50 mL volumetric flask and diluted to volume with either 50/50 water/methanol (stock solution A), or 50/50 water/acetonitrile (stock solution B).
An azobisisobutyronitrile (AIBN) stress solution was prepared by dissolving 7.77 mg of AIBN in 10 mL of stock solution A in an amber volumetric flask and sonicating to dissolve. The AIBN control solution was prepared by dissolving 8.48 mg of AIBN in 10 mL of 50/50 methanol/water in an amber volumetric flask. Both solutions were placed in an oven at 40° C. for 24 hours.
A peroxide stress solution was prepared by adding 1.0 mL of 3% hydrogen peroxide to 9.0 mL of stock solution A in a volumetric flask. An aliquot of the solution was placed into an amber vial kept at room temperature, and another aliquot was stored at 5° C. for 24 hours. The peroxide control solution was prepared by adding 1.0 mL of 3% hydrogen peroxide to 9.0 mL 50/50 methanol/water in an amber volumetric flask. This solution was kept at room temperature for 24 hours.
A 0.1N NaOH stress solution was prepared by adding 1.0 mL of 1N sodium hydroxide to 9.0 mL of stock solution B in an amber volumetric flask. One sample was kept at room temperature, and the identical sample was placed in an oven at 60° C. for 24 hours. A 0.1N NaOH control solution was prepared by adding 1.0 mL of 1N sodium hydroxide to 9.0 mL of 50/50 acetonitrile/water in an amber volumetric flask.
No major degradation was observed under AIBN or 0.1N NaOH base stress. […] The percent of Compound A was calculated based on the area count of active peak in the control samples compared to stress samples.

Sensitive for Hydrolysis or Oxidation (0.1 N NaOH base stress, in 0.1 N NaOH after 24h/RT): No sensitivity; <5% drug loss | Sensitive for Hydrolysis or Oxidation (AIBN stress): No sensitivity; <5% drug loss | Sensitive for Hydrolysis or Oxidation (Peroxide stress at 5° C.): High sensitivity; >10% drug loss | Sensitive for Hydrolysis or Oxidation (Peroxide stress at RT): High sensitivity; >10% drug loss | Sensitivity to two-electron oxidative processes (forced stress): highly sensitive
SMILES: Nc1nc2c(ncn2[C@@H]2O[C@@H]3CO[P@@](=O)(S)O[C@H]4[C@H](F)[C@H](n5cnc6c(N)ncnc65)O[C@@H]4CO[P@@](=O)(S)O[C@@H]2[C@@H]3F)c(=O)[nH]1 (single isomer, unassigned) [Compound A]
